The structures appear in SMILES notation.

Holding throughout (assay): biochemical
What all share (type): binding

Assay [1] has as its target T1, panel of 442 kinases (Homo sapiens, UniProt P24941).
T1 construct: purchased Ambit Biosciences (scanMAXX KINOMEscan)
The following applies: CDK2; for remaining activity at 1 µM: read-out: % of control at 1 µM.

Assay [2] addresses T2, panel of 442 kinases (Homo sapiens, UniProt Q96BR1).
T2 construct: purchased Ambit Biosciences (scanMAXX KINOMEscan)
T2 sequence (Q96BR1 1-496): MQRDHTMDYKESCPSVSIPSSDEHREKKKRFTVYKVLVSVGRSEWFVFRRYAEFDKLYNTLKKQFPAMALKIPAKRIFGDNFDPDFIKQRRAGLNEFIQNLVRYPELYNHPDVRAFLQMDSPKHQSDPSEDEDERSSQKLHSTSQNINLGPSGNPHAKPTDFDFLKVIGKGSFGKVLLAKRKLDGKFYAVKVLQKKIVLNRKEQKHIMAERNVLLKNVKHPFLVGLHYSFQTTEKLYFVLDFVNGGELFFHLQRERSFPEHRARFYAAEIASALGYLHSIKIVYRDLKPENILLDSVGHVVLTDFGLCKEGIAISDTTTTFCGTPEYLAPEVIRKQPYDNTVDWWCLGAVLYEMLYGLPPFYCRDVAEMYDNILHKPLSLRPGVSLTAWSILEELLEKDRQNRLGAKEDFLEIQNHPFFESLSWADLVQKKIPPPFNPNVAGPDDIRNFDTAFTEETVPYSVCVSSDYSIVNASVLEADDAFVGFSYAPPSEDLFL
The following applies: kinase SGK3; for remaining activity at 1 µM: read-out: SGK3 (% of control at 1 µM).

In assay [3] the target is T3, panel of 442 kinases (Homo sapiens, UniProt Q96GD4).
T3 construct: purchased Ambit Biosciences (scanMAXX KINOMEscan)
T3 sequence (Q96GD4 whole entry): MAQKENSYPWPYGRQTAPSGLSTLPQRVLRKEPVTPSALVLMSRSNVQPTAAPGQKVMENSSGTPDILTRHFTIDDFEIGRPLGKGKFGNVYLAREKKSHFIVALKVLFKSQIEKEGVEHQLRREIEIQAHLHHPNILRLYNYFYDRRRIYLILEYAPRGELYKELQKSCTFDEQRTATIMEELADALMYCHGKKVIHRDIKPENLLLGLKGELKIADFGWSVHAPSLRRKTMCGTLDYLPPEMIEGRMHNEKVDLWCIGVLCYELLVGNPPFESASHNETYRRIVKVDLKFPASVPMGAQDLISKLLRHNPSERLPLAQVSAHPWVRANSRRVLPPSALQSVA
As to conditions: AURKB; for remaining activity at 1 µM: read-out: % of control at 1 µM.

For assay [4], the target named is T4, panel of 442 kinases (Homo sapiens, UniProt Q9H2G2).
T4 construct: purchased Ambit Biosciences (scanMAXX KINOMEscan)
As to conditions: kinase SLK; for remaining activity at 1 µM: read-out: SLK (% of control at 1 µM).

For assay [5], the target named is T5, panel of 442 kinases (Homo sapiens, UniProt P07947).
T5 construct: purchased Ambit Biosciences (scanMAXX KINOMEscan)
T5 sequence (P07947 whole entry): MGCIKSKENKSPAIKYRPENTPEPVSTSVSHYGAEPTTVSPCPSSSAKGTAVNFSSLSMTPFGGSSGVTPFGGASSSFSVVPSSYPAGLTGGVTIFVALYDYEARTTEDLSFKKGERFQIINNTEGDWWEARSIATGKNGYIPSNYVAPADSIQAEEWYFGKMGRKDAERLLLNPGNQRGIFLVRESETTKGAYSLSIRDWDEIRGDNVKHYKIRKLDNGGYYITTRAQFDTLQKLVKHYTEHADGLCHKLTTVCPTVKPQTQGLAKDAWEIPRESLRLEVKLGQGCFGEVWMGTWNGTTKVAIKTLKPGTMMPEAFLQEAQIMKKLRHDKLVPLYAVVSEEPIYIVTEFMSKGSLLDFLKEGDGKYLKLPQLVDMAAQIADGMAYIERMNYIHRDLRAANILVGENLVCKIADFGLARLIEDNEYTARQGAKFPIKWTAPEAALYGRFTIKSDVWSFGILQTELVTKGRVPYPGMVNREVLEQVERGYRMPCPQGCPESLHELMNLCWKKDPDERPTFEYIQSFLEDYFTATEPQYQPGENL
As to conditions: kinase YES; for remaining activity at 1 µM: read-out: YES (% of control at 1 µM).

Assay [6] concerns the target T6, panel of 442 kinases (Homo sapiens, UniProt Q8IW41).
T6 construct: purchased Ambit Biosciences (scanMAXX KINOMEscan)
T6 sequence (Q8IW41 1-473): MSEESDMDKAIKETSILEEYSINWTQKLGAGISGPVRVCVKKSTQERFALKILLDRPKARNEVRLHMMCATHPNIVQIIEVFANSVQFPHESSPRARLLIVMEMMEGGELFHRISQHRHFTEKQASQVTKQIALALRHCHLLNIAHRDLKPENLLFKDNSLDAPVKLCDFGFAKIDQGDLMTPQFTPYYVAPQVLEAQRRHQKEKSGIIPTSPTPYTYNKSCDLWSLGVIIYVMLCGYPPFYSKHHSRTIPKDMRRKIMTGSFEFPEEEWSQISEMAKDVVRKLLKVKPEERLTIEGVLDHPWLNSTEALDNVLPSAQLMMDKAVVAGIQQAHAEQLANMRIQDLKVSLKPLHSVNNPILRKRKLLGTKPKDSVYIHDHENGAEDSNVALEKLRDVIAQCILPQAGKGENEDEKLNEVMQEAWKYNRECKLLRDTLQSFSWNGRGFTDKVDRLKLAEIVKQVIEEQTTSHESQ
As to conditions: kinase MAPKAPK5; for remaining activity at 1 µM: read-out: % of control at 1 µM.

For assay [7], the target named is T7, panel of 442 kinases (Homo sapiens, UniProt Q16288).
T7 construct: purchased Ambit Biosciences (scanMAXX KINOMEscan)
T7 sequence (Q16288 32-839): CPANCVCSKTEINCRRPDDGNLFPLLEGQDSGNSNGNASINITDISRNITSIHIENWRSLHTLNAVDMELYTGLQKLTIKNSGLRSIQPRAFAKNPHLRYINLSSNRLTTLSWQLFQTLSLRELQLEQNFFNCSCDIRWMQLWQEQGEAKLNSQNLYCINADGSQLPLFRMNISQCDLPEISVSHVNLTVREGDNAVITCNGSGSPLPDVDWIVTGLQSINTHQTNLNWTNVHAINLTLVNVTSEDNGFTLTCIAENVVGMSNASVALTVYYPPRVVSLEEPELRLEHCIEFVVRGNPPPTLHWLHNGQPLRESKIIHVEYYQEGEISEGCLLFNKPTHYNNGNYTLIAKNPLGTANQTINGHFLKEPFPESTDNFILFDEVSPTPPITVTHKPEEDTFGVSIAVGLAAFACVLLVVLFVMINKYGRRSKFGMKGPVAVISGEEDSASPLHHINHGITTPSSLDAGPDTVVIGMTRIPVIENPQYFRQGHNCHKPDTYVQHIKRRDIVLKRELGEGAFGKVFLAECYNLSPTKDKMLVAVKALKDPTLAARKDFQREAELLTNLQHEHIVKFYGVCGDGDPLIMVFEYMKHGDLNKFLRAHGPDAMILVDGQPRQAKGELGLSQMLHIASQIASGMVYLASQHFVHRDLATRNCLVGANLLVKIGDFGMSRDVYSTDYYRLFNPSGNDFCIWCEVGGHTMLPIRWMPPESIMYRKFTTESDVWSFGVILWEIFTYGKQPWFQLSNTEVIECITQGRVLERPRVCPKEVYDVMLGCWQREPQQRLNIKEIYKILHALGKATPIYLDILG
The following applies: kinase TRKC; for remaining activity at 1 µM: read-out: TRKC (% of control at 1 µM).

The target in assay [8] is T8, panel of 442 kinases (Homo sapiens, UniProt Q13464).
T8 construct: purchased Ambit Biosciences (scanMAXX KINOMEscan)
T8 sequence (Q13464 whole entry): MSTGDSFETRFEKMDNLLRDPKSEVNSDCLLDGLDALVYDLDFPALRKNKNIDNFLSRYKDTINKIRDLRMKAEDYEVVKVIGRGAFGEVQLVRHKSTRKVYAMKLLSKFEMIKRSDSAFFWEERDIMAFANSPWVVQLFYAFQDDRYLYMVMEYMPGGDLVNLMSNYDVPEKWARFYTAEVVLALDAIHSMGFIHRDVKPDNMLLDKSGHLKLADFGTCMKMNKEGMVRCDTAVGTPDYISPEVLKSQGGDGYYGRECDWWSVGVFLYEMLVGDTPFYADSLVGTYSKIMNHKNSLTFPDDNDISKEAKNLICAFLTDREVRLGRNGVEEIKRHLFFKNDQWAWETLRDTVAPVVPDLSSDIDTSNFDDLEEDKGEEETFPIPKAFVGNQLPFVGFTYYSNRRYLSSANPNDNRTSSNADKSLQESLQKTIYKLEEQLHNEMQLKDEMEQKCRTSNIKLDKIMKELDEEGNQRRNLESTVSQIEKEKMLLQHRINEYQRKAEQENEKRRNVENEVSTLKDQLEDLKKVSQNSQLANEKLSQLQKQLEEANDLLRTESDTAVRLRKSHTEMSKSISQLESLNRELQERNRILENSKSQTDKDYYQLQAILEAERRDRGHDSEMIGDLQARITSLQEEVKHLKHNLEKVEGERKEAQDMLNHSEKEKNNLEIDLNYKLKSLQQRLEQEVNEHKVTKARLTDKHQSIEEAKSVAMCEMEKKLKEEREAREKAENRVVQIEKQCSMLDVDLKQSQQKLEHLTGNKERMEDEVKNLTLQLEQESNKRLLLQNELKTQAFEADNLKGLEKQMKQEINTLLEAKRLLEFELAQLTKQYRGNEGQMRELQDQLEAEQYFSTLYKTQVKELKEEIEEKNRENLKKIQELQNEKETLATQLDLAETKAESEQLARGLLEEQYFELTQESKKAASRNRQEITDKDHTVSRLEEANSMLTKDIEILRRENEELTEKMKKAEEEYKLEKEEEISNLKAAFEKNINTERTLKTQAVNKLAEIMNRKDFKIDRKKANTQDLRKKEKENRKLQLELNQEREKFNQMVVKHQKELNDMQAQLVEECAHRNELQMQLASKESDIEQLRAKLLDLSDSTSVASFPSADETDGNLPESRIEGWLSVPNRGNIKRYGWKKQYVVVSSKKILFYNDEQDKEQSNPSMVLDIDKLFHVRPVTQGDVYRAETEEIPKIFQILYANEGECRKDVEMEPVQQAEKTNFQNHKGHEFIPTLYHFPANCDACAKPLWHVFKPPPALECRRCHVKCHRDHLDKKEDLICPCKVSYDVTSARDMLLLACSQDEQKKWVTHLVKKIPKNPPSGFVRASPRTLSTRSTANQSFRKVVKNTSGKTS
The following applies: kinase ROCK1; for remaining activity at 1 µM: read-out: ROCK1 (% of control at 1 µM).

The target in assay [9] is T9, panel of 442 kinases (Homo sapiens, UniProt P11309).
T9 construct: purchased Ambit Biosciences (scanMAXX KINOMEscan)
T9 sequence (P11309 whole entry): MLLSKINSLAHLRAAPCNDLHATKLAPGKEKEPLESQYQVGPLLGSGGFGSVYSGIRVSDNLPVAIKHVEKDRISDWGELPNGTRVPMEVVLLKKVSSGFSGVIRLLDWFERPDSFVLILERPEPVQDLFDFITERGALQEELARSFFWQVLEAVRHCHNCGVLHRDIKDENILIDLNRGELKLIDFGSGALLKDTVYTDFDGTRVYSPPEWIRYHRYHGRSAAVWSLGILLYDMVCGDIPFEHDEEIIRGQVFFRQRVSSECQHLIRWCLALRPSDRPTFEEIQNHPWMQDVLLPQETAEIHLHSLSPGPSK
The following applies: kinase PIM1; for remaining activity at 1 µM: read-out: % of control at 1 µM.

The target in assay [10] is T10, panel of 442 kinases (Homo sapiens, UniProt P48730).
T10 construct: purchased Ambit Biosciences (scanMAXX KINOMEscan)
T10 sequence (P48730 whole entry): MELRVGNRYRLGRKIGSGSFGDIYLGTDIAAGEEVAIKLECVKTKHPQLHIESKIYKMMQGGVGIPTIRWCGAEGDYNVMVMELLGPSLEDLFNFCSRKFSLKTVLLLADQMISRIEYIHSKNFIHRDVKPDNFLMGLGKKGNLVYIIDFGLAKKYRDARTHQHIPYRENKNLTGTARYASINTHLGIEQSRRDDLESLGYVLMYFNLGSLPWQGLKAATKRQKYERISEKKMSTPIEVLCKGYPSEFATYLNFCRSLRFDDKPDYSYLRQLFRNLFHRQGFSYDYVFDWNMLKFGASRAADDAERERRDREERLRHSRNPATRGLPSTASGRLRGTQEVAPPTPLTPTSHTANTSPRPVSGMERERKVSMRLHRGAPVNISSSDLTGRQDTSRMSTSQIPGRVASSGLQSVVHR
As to conditions: CSNK1D; for remaining activity at 1 µM: read-out: % of control at 1 µM.

For assay [11], the target named is T11, panel of 442 kinases (Homo sapiens, UniProt O43283).
T11 construct: purchased Ambit Biosciences (scanMAXX KINOMEscan)
T11 sequence (O43283 1-966): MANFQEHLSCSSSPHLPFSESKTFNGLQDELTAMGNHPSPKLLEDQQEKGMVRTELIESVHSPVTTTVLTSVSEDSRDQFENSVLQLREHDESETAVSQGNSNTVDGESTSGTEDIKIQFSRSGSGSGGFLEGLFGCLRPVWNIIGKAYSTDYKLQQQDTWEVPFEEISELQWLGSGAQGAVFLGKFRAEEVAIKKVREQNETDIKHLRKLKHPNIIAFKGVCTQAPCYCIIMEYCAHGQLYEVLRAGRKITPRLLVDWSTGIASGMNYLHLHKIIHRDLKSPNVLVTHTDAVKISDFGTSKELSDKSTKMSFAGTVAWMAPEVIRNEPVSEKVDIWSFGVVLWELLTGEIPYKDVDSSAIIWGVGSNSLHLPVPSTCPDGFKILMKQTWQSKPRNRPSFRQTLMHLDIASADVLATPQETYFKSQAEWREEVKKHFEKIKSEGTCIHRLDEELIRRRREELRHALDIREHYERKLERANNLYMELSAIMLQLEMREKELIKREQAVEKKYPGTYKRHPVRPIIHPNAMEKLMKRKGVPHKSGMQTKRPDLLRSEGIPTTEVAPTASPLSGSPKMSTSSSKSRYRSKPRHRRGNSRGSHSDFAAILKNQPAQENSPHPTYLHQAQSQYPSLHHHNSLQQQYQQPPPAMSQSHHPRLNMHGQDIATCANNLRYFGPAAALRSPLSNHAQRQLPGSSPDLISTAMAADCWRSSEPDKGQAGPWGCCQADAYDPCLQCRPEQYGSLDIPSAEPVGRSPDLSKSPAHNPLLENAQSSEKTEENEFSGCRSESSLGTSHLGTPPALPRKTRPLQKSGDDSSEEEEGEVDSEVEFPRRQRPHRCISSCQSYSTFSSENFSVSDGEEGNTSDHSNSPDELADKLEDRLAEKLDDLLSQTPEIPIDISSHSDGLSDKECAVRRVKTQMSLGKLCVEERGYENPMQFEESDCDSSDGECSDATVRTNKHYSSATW
As to conditions: kinase LZK; for remaining activity at 1 µM: read-out: % of control at 1 µM.

Assay [12] has as its target T12, panel of 442 kinases (Homo sapiens, UniProt P15056).
T12 construct: purchased Ambit Biosciences (scanMAXX KINOMEscan)
As to conditions: BRAF; for remaining activity at 1 µM: read-out: % of control at 1 µM.

Setting [13] is: 10 µM, read-out: % of control at 10 µM.

T12 sequence (P15056 whole entry): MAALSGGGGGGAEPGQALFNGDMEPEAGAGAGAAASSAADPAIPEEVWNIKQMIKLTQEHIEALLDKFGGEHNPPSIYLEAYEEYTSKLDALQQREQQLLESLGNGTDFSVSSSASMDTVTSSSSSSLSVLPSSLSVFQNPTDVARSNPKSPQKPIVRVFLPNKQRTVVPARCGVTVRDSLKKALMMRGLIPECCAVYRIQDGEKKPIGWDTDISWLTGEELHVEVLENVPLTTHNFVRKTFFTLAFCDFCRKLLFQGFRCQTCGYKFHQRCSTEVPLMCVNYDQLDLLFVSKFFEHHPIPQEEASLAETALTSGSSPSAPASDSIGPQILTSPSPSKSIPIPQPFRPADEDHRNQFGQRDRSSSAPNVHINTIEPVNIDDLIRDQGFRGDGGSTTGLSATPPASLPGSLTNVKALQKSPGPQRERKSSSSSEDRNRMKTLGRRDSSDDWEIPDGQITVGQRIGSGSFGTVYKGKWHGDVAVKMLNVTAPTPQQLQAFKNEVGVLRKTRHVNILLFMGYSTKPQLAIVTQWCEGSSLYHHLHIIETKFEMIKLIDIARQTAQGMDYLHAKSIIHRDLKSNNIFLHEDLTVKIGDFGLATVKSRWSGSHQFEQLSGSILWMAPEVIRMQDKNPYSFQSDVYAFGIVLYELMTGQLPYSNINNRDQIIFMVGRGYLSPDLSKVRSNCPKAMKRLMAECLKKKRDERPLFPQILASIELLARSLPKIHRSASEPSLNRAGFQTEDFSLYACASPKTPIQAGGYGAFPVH

Consider `COc1ncc(-c2ccc3nccc(-c4ccnnc4)c3c2)cc1NS(=O)(=O)c1ccc(F)cc1F` [Omipalisib], for which the remaining activity at 1 µM in [1] came to 100%; in assay [2], 92%; in [3], 100%; in assay [4] it was 100%; in [5], 100%; in assay [6], 100%. Further, the remaining activity at 1 µM in assay [7] worked out at 100%; in assay [8], 88%; in [9], 100%; in assay [10], 100%; in [11] it was 100%.
As for `Cn1c(=O)n(-c2ccc(C(C)(C)C#N)cc2)c2c3cc(-c4cnc5ccccc5c4)ccc3ncc21` [Dactolisib, 2-methyl-2-[4-(3-methyl-2-oxo-8-quinolin-3-yl-2,3-dihydroimidazo[4,5-c]quinolin-1-yl)-phenyl] propionitrile], the remaining activity at 1 µM in [1] worked out at 78%; in [12] it was 88%; in assay [2], 100%; in assay [4] it was 89%; in assay [5], 100%; in assay [6], 100%. The remaining activity at 1 µM in assay [7] was 85%; in assay [8], 52%; in assay [9] it was 100%; in [10], 76%; in assay [11], 100%.
For the molecule `Nc1cc(C(F)(F)F)c(-c2cc(N3CCOCC3)nc(N3CCOCC3)n2)cn1` [Buparlisib], the remaining activity at 1 µM in assay [1] worked out at 84%; in assay [12], 59%; in assay [2], 79%; in [3], 93%; in [4], 100%; in assay [5], 100%. Further, the remaining activity at 1 µM in assay [6] stood at 100%; in [7], 76%; in assay [8] it was 86%; in assay [9], 87%; in [10], 92%; in [11], 81%. Also, the remaining activity at 10 µM in assay [1] (setting [13]) is 100%; in assay [12] (setting [13]), 40%; in [2] (10 µM, read-out: SGK3 (% of control at 10 µM)) it was 100%; in assay [3] (setting [13]), 100%; in assay [4] (10 µM, read-out: SLK (% of control at 10 µM)) it was 100%; in assay [5] (10 µM, read-out: YES (% of control at 10 µM)), 100%. Also, the remaining activity at 10 µM in [6] (setting [13]) was 100%; in assay [7] (10 µM, read-out: TRKC (% of control at 10 µM)), 76%; in assay [8] (10 µM, read-out: ROCK1 (% of control at 10 µM)), 80%; in assay [9] (setting [13]), 100%; in [10] (setting [13]), 75%; in assay [11] (setting [13]), 98%.
For the molecule `FC(F)c1nc2ccccc2n1-c1nc(N2CCOCC2)nc(N2CCOCC2)n1` [ZSTK474, 2-(difluoromethyl)-1-[4,6-di(4-morpholinyl)-1,3,5-triazin-2-yl]-1H-benzimidazole], the remaining activity at 1 µM in assay [1] is 74%; in [12], 61%; in assay [2], 87%; in [3], 90%; in assay [4], 100%; in assay [5] it was 100%. The remaining activity at 1 µM stood at 100% in assay [6]; 100% in assay [7]; 75% in assay [8]; 100% in assay [9]; 67% in [10]; 100% in assay [11].
